Common to all, as to assay: NCI-60 cell line screen, 48 h
Assay [1] deals with SK-MEL-28.
Assay [2] relates to UACC-257.
The test system of assay [3] is M14.
Assay [4] relates to SN12C.
In assay [5] the test system is UACC-62.
In assay [6] the test system is SF-539.
Assay [7] relates to HOP-62.
The test system of assay [8] is HT-29.
Assay [9] relates to A498.
For assay [10], the system named is MOLT-4.
Assay [11] deals with RPMI-8226.
Assay [12] deals with OVCAR-5.
The test system of assay [13] is PC-3.
Assay [14] has as its system CCRF-CEM.
Assay [15] relates to Malme-3M.
For assay [16], the system named is SNB-75.
The test system of assay [17] is COLO 205.
Assay [18] has as its system HOP-92.
The subject of assay [19] is MDA-N.
The test system of assay [20] is NCI-H460.

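Protocol summary: plate cells (96-well), add compound at 5 concentrations, incubate 48 h, interpolate endpoints linearly. The concentration for 50% growth inhibition is given as GI50.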 Active and inactive are the calls of the source. Rule as the data show it: active = GI50 up to about 1.1 µM and inactive = higher.

We go through 11 molecules from ChEMBL document CHEMBL1201862, “PubChem BioAssay data set” (2004).

With `Cn1ncc2c(Nc3cccc(Cl)c3)nc(Nc3cccc(Cl)c3)nc21`, the GI50 in assay [1] was 14.8 µM (inactive); in assay [2], 8.73 µM (inactive); in assay [3], 6.7 µM (inactive); in [4], 20.7 µM (inactive); in assay [5], 13.7 µM (inactive); in assay [6] it was 19.9 µM (inactive). Further, the GI50 in [7] is 17.3 µM (inactive); in assay [8] it was 3.87 µM (inactive); in assay [9], 5.98 µM (inactive); in assay [10], 4.68 µM (inactive); in assay [11], 3.61 µM (inactive); in assay [12], 16.1 µM (inactive). Also, the GI50 in assay [13] was 8.24 µM (inactive); in assay [14], 1.15 µM (inactive); in assay [15] it was 17.6 µM (inactive); in [16] it was 7.93 µM (inactive); in assay [17], > 24.7 µM (inactive); in assay [18], 10.9 µM (inactive).
Take `O=P(c1ccccc1)(c1ccccc1)C(NCc1ccccc1)c1ccc(F)cc1` (stereo unspecified): the GI50 in assay [1] is 15.1 µM (inactive); in assay [2], 18 µM (inactive); in assay [3] it was 14.7 µM (inactive); in assay [4], 17.9 µM (inactive); in [5] it was 13 µM (inactive); in assay [19], 17.1 µM (inactive). The GI50 in assay [6] was 17.7 µM (inactive); in [7], 21.6 µM (inactive); in [20] it was 12.2 µM (inactive); in assay [8], 13.2 µM (inactive); in assay [9] it was 15.2 µM (inactive); in [10], 14.2 µM (inactive). Further, the GI50 in assay [11] is 25.9 µM (inactive); in [14] it was 16.9 µM (inactive); in assay [15] it was 17.9 µM (inactive); in assay [16], 23.8 µM (inactive); in assay [17], 14.7 µM (inactive); in assay [18], 12.9 µM (inactive).
For `COC(=O)c1ccc(/C=C/S(=O)(=O)c2ccccc2)cc1`, the GI50 in assay [1] is 44.9 µM (inactive); in assay [2], > 100 µM (inactive); in [3] it was > 100 µM (inactive); in [4], > 100 µM (inactive); in [5], > 100 µM (inactive); in assay [6], > 100 µM (inactive). Also, the GI50 in [7], in assay [20], in [8], in assay [9], in assay [10] and in [11] was > 100 µM (inactive) throughout. Further, the GI50 in assay [12] is > 100 µM (inactive); in assay [14] it was > 100 µM (inactive); in [15], > 100 µM (inactive); in assay [16], 67.6 µM (inactive); in assay [17] it was > 100 µM (inactive); in assay [18] it was > 100 µM (inactive).
Regarding `COC1/C=C(C)/C=C/C(C)/C=C/C(=O)OC(/C(C)=C/C=C(\C)CNC(=O)[C@H](CO)NC=O)C(C)/C=C/C=C/C(OC)CC/C=C(C)/C=C/C1` (stereo partly specified), the GI50 in assay [1] was > 0.283 µM (active); in assay [2], 0.0264 µM (active); in assay [3], 0.0183 µM (active); in assay [5] it was 0.0251 µM (active); in [6] it was 0.0281 µM (active); in assay [7] it was 0.0224 µM (active). Besides, the GI50 in [20] was 0.0316 µM (active); in [8], 0.0125 µM (active); in [9], > 1 µM (active); in assay [10], 0.0206 µM (active); in assay [11], 0.0215 µM (active); in assay [12], 0.0328 µM (active). The GI50 in [13] is 0.0264 µM (active); in [14], 0.0474 µM (active); in assay [15], 0.0863 µM (active); in assay [16], > 1 µM (active); in assay [18], 0.0447 µM (active).
Turning to `Cc1ccc(C2[C@H]3C(=O)N(c4ccc(Cc5ccc(N6C(=O)[C@@H]7ON(c8ccccc8)C(c8ccc(C)cc8)[C@@H]7C6=O)cc5)cc4)C(=O)[C@H]3ON2c2ccccc2)cc1` (stereo partly specified), the GI50 in assay [1] was > 100 µM (inactive); in assay [2] it was > 100 µM (inactive); in assay [3] it was 91.6 µM (inactive); in assay [4], > 100 µM (inactive); in assay [5], > 100 µM (inactive); in assay [6], > 100 µM (inactive). In addition, the GI50 in [7], in assay [20], in [8], in assay [9], in assay [10] and in [11] was > 100 µM (inactive) throughout. For the same molecule, the GI50 in assay [12] is > 100 µM (inactive); in assay [14], > 100 µM (inactive); in assay [15], > 100 µM (inactive); in assay [16] it was 99.8 µM (inactive); in [17], > 100 µM (inactive); in assay [18], > 100 µM (inactive).
Take `NNC(=S)N/N=C(\C(=O)Nc1cccc(O)c1)C1C(=O)NC(=S)NC1=O`: the GI50 in [1], in assay [2], in assay [3], in [4], in assay [5] and in assay [6] was > 100 µM (inactive) throughout. In addition, the GI50 in [7], in assay [20], in assay [8], in assay [9], in assay [10] and in [11] was > 100 µM (inactive) each time. The GI50 in [12], in assay [13], in assay [14], in assay [15], in [16] and in assay [18] was > 100 µM (inactive) in each case.
`C/C(=N\Nc1nc2ccccc2s1)c1ncccn1`: the GI50 in assay [1] was 0.179 µM (active); in assay [2], < 0.0205 µM (active); in [3] it was < 0.0194 µM (active); in assay [4], < 0.0204 µM (active); in assay [5] it was 0.101 µM (active); in assay [6], 0.0757 µM (active). The GI50 in assay [7] is 0.131 µM (active); in assay [20], 0.04 µM (active); in [8] it was < 0.01 µM (active); in assay [9], 3.13 µM (inactive); in assay [10] it was < 0.01 µM (active); in [11] it was 0.0775 µM (active). Also, the GI50 in assay [12] was 0.415 µM (active); in assay [13] it was 0.118 µM (active); in assay [14], 0.1 µM (active); in assay [15], 0.0505 µM (active); in [16], 0.617 µM (active); in [17] it was < 0.01 µM (active). Further, the GI50 in assay [18] was < 0.0276 µM (active).
Consider `NC(=O)C(=O)N/N=C(\CC1(O)C(=O)Nc2ccccc21)c1ccc2ccccc2c1` (stereo unspecified), for which the GI50 in assay [1] was 26.9 µM (inactive); in assay [2], 28.5 µM (inactive); in assay [3], 32.7 µM (inactive); in assay [4], 26.3 µM (inactive); in assay [5], 19.8 µM (inactive); in [6], 48.9 µM (inactive). Further, the GI50 in assay [7] was 51.2 µM (inactive); in assay [20], 34 µM (inactive); in assay [8], 34.4 µM (inactive); in [9] it was 17.9 µM (inactive); in assay [10], 20.9 µM (inactive); in assay [11], 34.4 µM (inactive). Moreover, the GI50 in assay [12] is > 100 µM (inactive); in assay [14], 20.3 µM (inactive); in [15], 61.7 µM (inactive); in assay [16], 40.6 µM (inactive); in assay [17], 22.8 µM (inactive); in assay [18] it was 39 µM (inactive).
Turning to `CCc1c(-c2coc(CC/C(C)=C/c3ccccc3)n2)oc(OC)c(C)c1=O`, the GI50 in [1] is > 100 µM (inactive); in assay [2] it was > 100 µM (inactive); in [3], 34.8 µM (inactive); in [4], > 42.1 µM (inactive); in [5], 17.6 µM (inactive); in assay [6], 28 µM (inactive). The GI50 in [7] was > 40 µM (inactive); in assay [20], 18.7 µM (inactive); in assay [8], 24.8 µM (inactive); in assay [9], 99.8 µM (inactive); in assay [10] it was 10.9 µM (inactive); in [11] it was 11.7 µM (inactive). Moreover, the GI50 is > 100 µM (inactive) in [12]; 14.9 µM (inactive) in assay [14]; > 59.8 µM (inactive) in assay [15]; 49.4 µM (inactive) in assay [16]; 21.5 µM (inactive) in assay [17]; 34.6 µM (inactive) in [18].
As for `CC(=O)C(=CNc1c(C)n(C)n(-c2ccccc2)c1=O)C(C)=O`, the GI50 in assay [2], in [3], in [4], in assay [5], in assay [6] and in assay [9] was > 100 µM (inactive) each time. The GI50 in assay [10], in assay [11], in assay [12], in [13], in [14] and in assay [15] was > 100 µM (inactive) in each case. The GI50 in [16], in assay [17] and in [18] was > 100 µM (inactive) each time.
Regarding `Nc1ccc(-c2nn3c(COc4ccc(Cl)cc4)nnc3s2)cc1`, the GI50 in assay [1] was > 100 µM (inactive); in assay [2], > 100 µM (inactive); in assay [3], > 100 µM (inactive); in [4], > 100 µM (inactive); in assay [5], > 100 µM (inactive); in assay [20] it was 40 µM (inactive). The GI50 in [8] is > 100 µM (inactive); in assay [10] it was 51.3 µM (inactive); in assay [11], 77.6 µM (inactive); in assay [12] it was > 100 µM (inactive); in [13] it was 88.7 µM (inactive); in [15], > 100 µM (inactive). For the same molecule, the GI50 is > 100 µM (inactive) in [16] and 74.5 µM (inactive) in [17].
